This is an account of results in ChEMBL document CHEMBL5678812, “Inhibitors of p21-activated kinases (PAKs)” (J Med Chem, 2015).

SMILES strings stand for the structures. ≈ marks a conversion by molar mass, not a printed value.

Data set [1] addresses Serine/threonine-protein kinase PAK 4 (Mus musculus, UniProt Q8BTW9). As to the kind of experiment: Inhibition of PAK4 in mouse NIH3T3 cells assessed as reduction in phosphorylated GEF-H1 accumulation incubated for 30 mins by immunoblotting analysis. It is filed as cell-based. (A western blot detects proteins with antibodies after separation by electrophoresis.)
Data set [2] can be described thus: Apparent permeability across apical to basolateral side in human Caco-2 cells. The class given is ADME, cell-based. In general terms: Caco-2 cells form a polarised layer with tight junctions and transporters.
A short description of data set [3]: Clearance in rat at 10 mg/kg, po. The class given is ADME, organism-based. The note with it: in vivo.
Data set [4] in a line: Oral bioavailability in dog at 10 mg/kg. The note with it: in vivo. It is filed as ADME, organism-based, Canis lupus familiaris.
Data set [5] is described as follows: Clearance in dog at 10 mg/kg, po. The class given is ADME, organism-based, Canis lupus familiaris. As to conditions: in vivo.
Data set [6] can be described thus: Half life in dog at 10 mg/kg, po. It is filed as ADME, organism-based, Canis lupus familiaris. As to conditions: in vivo.
For data set [7], the system named is HCT-116. The data set can be described thus: Antitumor activity against human HCT-116 cells xenografted in mouse assessed as tumor growth inhibition at 12 mg/kg, po. The class given is functional. As to conditions: read-out: TGI.
Data set [8] concerns HCT-116. The data set can be described thus: Antitumor activity against human HCT-116 cells xenografted in mouse assessed as tumor growth inhibition at 20 mg/kg, po. The class given is functional. As to conditions: read-out: TGI. For orientation: Xenograft models place foreign cells or tissue in a host animal.
For data set [9], the system named is M24met. The data set can be described thus: Antitumor activity against human M24met cells xenografted in mouse assessed as tumor growth inhibition at 15 mg/kg, po. It is filed as functional. As to conditions: read-out: TGI.
For data set [10], the target named is Serine/threonine-protein kinase PAK 2 (Homo sapiens, UniProt Q13177). The data set can be described thus: Binding affinity to PAK2 (unknown origin) assessed as dissociation constant.
Data set [11] has as its target Serine/threonine-protein kinase PAK 3 (Homo sapiens, UniProt O75914). The data set can be described thus: Binding affinity to PAK3 (unknown origin) assessed as dissociation constant.
Data set [12] has as its target T1, Serine/threonine-protein kinase PAK 4 (Homo sapiens, UniProt O96013). The data set can be described thus: Binding affinity to PAK4 (unknown origin) assessed as dissociation constant.
Target sequence in this assay (O96013 whole entry): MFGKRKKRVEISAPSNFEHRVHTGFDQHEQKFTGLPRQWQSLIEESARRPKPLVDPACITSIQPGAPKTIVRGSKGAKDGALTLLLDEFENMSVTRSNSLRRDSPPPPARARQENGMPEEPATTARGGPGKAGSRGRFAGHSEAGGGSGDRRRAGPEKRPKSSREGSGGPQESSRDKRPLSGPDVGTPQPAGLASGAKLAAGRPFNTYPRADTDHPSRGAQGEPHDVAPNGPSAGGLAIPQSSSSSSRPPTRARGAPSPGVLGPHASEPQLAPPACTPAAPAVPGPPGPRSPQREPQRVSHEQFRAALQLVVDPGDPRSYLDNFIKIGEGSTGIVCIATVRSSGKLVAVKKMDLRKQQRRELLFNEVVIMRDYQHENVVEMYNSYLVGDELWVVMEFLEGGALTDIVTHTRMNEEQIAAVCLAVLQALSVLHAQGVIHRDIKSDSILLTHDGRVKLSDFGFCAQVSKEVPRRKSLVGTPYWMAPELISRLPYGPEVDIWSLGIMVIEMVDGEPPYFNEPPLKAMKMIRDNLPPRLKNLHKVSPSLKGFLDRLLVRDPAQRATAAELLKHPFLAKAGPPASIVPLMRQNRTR
Data set [13] deals with Serine/threonine-protein kinase PAK 5 (Homo sapiens, UniProt Q9P286). As to the kind of experiment: Binding affinity to PAK7 (unknown origin) assessed as dissociation constant.
Data set [14] concerns the target Serine/threonine-protein kinase PAK 6 (Homo sapiens, UniProt Q9NQU5). The data set can be described thus: Inhibition of recombinant PAK6 (unknown origin).
Data set [15] addresses Cyclin-dependent kinase 7 (Homo sapiens, UniProt P50613). As to the kind of experiment: Inhibition of CDK7 (unknown origin).
Data set [16] is described as follows: Inhibition of p53/pin 1 (unknown origin) interaction. More on the design: species or system Homo sapiens.
The target in data set [17] is Tumour suppressor p53/oncoprotein Mdm2 (Homo sapiens, UniProt P04637+Q00987). The data set can be described thus: Inhibition of MDM2/p53 (unknown origin) interaction. It is filed as protein assay.
Data set [18] has as its system HCT-116. The data set can be described thus: Antitumor activity against human HCT-116 cells xenografted in mouse assessed as tumor growth inhibition at 7.5 to 30 mg/kg, po measured for 9 to 18 days. The note with it: dose 7.5-30 mg/kg, time 9-18 day. It is filed as functional.
Data set [19] concerns COLO 205. The data set can be described thus: Antitumor activity against human COLO 205 cells xenografted in mouse assessed as tumor growth inhibition at 7.5 to 30 mg/kg, po measured for 9 to 18 days. As to conditions: dose 7.5-30 mg/kg, time 9-18 day. It is filed as functional.
The test system of data set [20] is MDA-MB-231. The data set can be described thus: Antitumor activity against human MDA-MB-231 cells xenografted in mouse assessed as tumor growth inhibition at 7.5 to 30 mg/kg, po measured for 9 to 18 days. As to conditions: dose 7.5-30 mg/kg, time 9-18 day. The class given is functional.
Data set [21] has as its system A549. The data set can be described thus: Antitumor activity against human A549 cells xenografted in mouse assessed as tumor growth inhibition at 7.5 to 30 mg/kg, po measured for 9 to 18 days. The note with it: dose 7.5-30 mg/kg, time 9-18 day. The class given is functional.
The test system of data set [22] is M24met. The data set can be described thus: Antitumor activity against human M24met cells xenografted in mouse assessed as tumor growth inhibition at 7.5 to 30 mg/kg, po measured for 9 to 18 days. The class given is functional. The note with it: dose 7.5-30 mg/kg, time 9-18 day.
The subject of data set [23] is HCT-116. The data set can be described thus: Antitumor activity against human HCT-116 cells xenografted in mouse assessed as downregulation of GEF-H1 phosphorylation at 25 mg/kg, po measured after 18 hrs. The class given is functional.
The target of data set [24] is T1, Serine/threonine-protein kinase PAK 4. The data set can be described thus: Inhibition of PAK4 (unknown origin) using 5-FAM-AhxKKRNRRLSVA-amide as substrate incubated for 90 mins by caliper off-chip mobility shift assay.
Target sequence in this assay (O96013 whole entry): as above
Data set [25] has the same target. As to the kind of experiment: Inhibition of PAK4 (unknown origin).
Target sequence in this assay (O96013 whole entry): as above
Data set [26] in a line: Kinetic solubility of compound. It is filed as physicochemical. As to conditions: read-out: Kinetic_solubility.
The target of data set [27] is T1, Serine/threonine-protein kinase PAK 4. As to the kind of experiment: Inhibition of PAK4 (unknown origin) at 10 uM relative to control.
Target sequence in this assay (O96013 whole entry, looked up): as the sequence (O96013 whole entry) above
Data set [28] has the same target. The data set can be described thus: Inhibition of PAK4 (unknown origin) in presence of ATP by Z-LYTE enzymatic kinase assay.
Target sequence in this assay (O96013 whole entry): as above
Data set [29] has the same target. As to the kind of experiment: Inhibition of PAK4 (unknown origin) assessed as inhibition constant.
Target sequence in this assay (O96013 whole entry): as above

Serine/threonine-protein kinase PAK 4 (Mus musculus, UniProt Q8BTW9), sequence (Q8BTW9 whole entry): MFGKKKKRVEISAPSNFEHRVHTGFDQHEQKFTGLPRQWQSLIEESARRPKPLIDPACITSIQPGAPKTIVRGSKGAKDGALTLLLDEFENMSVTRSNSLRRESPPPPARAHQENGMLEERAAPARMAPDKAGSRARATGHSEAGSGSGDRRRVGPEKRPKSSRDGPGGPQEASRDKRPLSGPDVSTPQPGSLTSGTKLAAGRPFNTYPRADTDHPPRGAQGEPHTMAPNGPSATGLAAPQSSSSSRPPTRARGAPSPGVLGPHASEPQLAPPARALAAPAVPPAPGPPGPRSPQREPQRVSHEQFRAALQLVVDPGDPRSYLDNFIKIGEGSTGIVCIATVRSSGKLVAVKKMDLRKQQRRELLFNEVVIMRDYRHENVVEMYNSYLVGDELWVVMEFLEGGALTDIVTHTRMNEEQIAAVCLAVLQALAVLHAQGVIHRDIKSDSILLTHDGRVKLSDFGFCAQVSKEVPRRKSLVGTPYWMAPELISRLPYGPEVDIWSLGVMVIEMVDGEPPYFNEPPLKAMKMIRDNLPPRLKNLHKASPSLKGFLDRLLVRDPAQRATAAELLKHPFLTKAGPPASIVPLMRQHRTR
Serine/threonine-protein kinase PAK 2, sequence (Q13177 whole entry): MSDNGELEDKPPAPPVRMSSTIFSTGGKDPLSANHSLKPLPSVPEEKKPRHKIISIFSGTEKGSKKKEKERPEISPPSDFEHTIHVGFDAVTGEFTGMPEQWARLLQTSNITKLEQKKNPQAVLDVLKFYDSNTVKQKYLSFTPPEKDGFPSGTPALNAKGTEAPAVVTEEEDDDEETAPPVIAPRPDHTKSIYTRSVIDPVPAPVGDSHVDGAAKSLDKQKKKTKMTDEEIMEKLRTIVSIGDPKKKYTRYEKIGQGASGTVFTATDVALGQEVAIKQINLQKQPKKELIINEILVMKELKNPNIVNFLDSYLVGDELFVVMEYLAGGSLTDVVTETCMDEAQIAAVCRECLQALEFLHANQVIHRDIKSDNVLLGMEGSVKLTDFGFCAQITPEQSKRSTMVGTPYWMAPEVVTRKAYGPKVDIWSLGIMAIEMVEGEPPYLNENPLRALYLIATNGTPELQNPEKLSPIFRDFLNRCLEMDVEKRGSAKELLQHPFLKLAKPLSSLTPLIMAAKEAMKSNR
Serine/threonine-protein kinase PAK 3, sequence (O75914 whole entry): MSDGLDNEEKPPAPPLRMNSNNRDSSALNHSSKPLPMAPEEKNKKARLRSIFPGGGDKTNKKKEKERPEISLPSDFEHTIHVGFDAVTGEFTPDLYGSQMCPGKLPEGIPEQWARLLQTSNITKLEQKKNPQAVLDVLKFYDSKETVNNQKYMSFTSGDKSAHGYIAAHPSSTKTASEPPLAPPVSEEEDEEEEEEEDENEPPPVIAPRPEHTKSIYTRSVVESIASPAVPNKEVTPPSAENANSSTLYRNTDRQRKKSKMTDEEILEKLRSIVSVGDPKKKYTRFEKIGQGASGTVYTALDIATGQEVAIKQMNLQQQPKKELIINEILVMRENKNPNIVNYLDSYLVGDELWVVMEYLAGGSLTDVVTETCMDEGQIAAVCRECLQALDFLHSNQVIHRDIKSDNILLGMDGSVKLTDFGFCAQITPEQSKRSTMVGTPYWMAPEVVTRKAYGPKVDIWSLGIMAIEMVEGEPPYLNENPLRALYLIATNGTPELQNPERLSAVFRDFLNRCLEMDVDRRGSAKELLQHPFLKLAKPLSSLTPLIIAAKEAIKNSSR
Serine/threonine-protein kinase PAK 6, sequence (Q9NQU5 whole entry): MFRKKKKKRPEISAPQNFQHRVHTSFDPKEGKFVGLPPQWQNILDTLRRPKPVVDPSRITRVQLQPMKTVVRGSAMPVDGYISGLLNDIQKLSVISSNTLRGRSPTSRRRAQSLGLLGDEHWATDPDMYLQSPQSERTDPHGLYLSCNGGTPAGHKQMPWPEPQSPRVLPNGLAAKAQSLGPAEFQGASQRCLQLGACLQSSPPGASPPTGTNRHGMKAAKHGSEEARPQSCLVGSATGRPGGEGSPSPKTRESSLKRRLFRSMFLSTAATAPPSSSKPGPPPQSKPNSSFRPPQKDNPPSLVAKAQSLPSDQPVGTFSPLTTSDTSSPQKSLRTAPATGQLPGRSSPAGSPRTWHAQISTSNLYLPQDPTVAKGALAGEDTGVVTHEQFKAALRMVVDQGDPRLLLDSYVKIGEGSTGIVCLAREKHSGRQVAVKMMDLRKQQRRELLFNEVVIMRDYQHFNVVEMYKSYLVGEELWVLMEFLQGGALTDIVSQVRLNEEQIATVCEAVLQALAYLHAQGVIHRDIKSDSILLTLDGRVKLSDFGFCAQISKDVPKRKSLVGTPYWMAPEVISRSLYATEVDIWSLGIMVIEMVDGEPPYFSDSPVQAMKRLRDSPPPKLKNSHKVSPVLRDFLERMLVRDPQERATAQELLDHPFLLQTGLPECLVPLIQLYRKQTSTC
Serine/threonine-protein kinase PAK 5, sequence (Q9P286 whole entry): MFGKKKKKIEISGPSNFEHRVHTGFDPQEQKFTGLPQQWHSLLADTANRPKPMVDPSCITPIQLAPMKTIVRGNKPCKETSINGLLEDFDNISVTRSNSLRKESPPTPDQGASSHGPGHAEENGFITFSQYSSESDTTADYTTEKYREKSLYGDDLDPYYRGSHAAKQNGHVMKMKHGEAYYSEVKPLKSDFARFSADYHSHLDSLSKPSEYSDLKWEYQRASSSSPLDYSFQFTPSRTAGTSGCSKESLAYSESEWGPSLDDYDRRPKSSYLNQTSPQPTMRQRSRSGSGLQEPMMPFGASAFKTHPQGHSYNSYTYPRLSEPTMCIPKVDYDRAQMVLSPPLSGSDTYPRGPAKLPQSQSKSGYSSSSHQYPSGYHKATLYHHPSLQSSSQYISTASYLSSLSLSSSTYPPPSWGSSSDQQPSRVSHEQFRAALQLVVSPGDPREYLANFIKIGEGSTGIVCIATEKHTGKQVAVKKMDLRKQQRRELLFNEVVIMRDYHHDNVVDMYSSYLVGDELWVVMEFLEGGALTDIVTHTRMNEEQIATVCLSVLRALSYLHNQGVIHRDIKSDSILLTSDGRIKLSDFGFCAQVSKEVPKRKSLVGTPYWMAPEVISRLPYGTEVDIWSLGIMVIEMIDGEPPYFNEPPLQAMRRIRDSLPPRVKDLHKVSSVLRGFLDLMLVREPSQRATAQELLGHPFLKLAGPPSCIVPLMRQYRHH
Cyclin-dependent kinase 7, sequence (P50613 whole entry): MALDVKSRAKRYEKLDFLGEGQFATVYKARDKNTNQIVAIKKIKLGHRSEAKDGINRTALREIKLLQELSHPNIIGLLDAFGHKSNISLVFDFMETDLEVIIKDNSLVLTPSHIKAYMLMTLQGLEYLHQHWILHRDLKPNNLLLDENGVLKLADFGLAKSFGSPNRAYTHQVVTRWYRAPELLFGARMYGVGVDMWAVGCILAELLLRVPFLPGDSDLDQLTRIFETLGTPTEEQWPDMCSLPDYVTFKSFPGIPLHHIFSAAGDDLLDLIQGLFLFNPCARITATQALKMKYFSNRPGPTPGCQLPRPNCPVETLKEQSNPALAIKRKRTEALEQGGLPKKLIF

Broadly, the EC50 is the midpoint of the concentration-response curve. In general, Papp A→B refers to the apparent permeability from the apical to the basolateral side of a cell layer. What is called CL/F is clearance divided by bioavailability, as obtained after extravascular dosing. In general, bioavailability refers to dose-corrected exposure relative to a reference, in per cent. Higher therefore signals much systemic uptake. Broadly, the half-life is the time needed for the level to fall by half in the phase considered. Lower therefore signals fast loss. With `CN(C)C[C@@H](OC(=O)N1Cc2c(NC(=O)C(C)(C)C)n[nH]c2C1(C)C)c1ccccc1`, the EC50 in [1] was found to be 4 nM. Further, the Papp A→B in data set [2] is 1.7 ×10⁻⁶ cm/s. The results for the CL/F in data set [3] and in data set [5] were 52 mL/min/kg and 12 mL/min/kg, respectively. This compound also displayed a bioavailability in data set [4] of 20%. Also, the half-life in data set [6] was 2.2 h. Besides, the inhibition in vivo at 12 mg/kg in data set [7] is 37%. The inhibition in vivo at 20 mg/kg in data set [8] is 52%. Further, the inhibition in vivo at 15 mg/kg in data set [9] came out at 68%.

In general, Kd refers to a measure of binding affinity in units of concentration. With `CCN1c2ccc(F)cc2N=C(NC2CCN(C(=O)NC(C)(C)C)C2)c2cc(Cl)ccc21` (stereo not given), the Kd in [10] is 1100 nM; in data set [11], over 40000 nM; in data set [12], over 40000 nM; in [13], over 40000 nM.

As a reminder, the IC50 is the concentration that inhibits the measured activity by half. The term TGI denotes the reduction of tumour growth relative to the control group. For `Cc1nc(Nc2n[nH]c3c2CN(C(=O)N[C@H](CN(C)C)c2ccccc2)C3(C)C)c2sccc2n1` [PF-03758309], the IC50 in [14] is about 20 nM; in data set [15], 7 nM; in data set [16], 5.7 nM; in data set [17] it was 5.6 nM. The inhibition of tumour growth (TGI) in data set [18], in data set [19], in data set [20], in [21] and in [22] was over 70% in each case.

Take `CN(C)C[C@@H](NC(=O)N1Cc2c(NC(=O)c3ccccc3)n[nH]c2C1(C)C)c1ccccc1`: the EC50 in [1] amounted to 32 nM. Also, the apical-to-basolateral permeability (Papp A→B) in [2] worked out at 0.1 ×10⁻⁶ cm/s. In addition, the Activity in data set [23] is on record as about 61%.

For the compound `O=C(c1ccccc1Cl)c1n[nH]c2ncc(-c3cnn(C4CCNCC4)c3)cc12`, the IC50 in data set [24] was found to be 550 nM.

In the case of `COc1nc(NCCc2c[nH]c3ccccc23)nc(Nc2ccc3[nH]ncc3c2)n1`, in data set [25], the IC50 was determined as 790 nM.

With `CN1CCN(C(=O)N2Cc3c(NC(=O)c4cccc(Oc5ccccc5)c4)n[nH]c3C2(C)C)[C@@H](Cc2ccccc2)C1`, the EC50 in data set [1] turned out to be 810 nM.

With `CC(C)NC(=O)N1CCC(NC2=Nc3cc(F)ccc3N(CC(F)F)c3ccc(Cl)cc32)C1` (stereo not given), the solubility kinetic in data set [26] was determined as 55 µM (≈ 26.4 µg/mL). Further, in [10], the Kd was 400 nM.

`CCn1c(=O)c(-c2ccc(-c3noc(C)n3)cc2Cl)cc2cnc(Nc3ccc(C4CCN(C)CC4)cc3)nc21` yielded an IC50 in data set [25] of 960 nM.

Usually inhibition stands for how much of the control response was suppressed. Read a high inhibition as strong suppression. Compound `CCn1cnc2c(Nc3cccc(Cl)c3)nc(NC3CCCCC3N)nc21` (stereo not given) yielded an inhibition in data set [27] of 44%.

As to `CCn1c(=O)c(-c2ccc(-c3cncs3)cc2Cl)cc2cnc(Nc3ccc(N4CCN(C)CC4)cc3)nc21`, the IC50 in data set [28] is over 10000 nM.

As to `CN(C)C[C@@H](NC(=O)c1ccc2[nH]nc(-c3nc4ccccc4[nH]3)c2c1)c1ccccc1`, in data set [1], the EC50 turned out to be 13 nM.

As a reminder, the Ki is the dissociation constant of the complex between target and ligand, obtained from inhibition or displacement. Turning to `N[C@@H]1[C@H]2CN(c3nc(Nc4cc(C5CC5)[nH]n4)c4sccc4n3)C[C@@H]12`, the Ki in data set [29] came to 4 nM.
